These results are taken from US20260274869A1, “PREPARATION METHODS OF ETHER-BONDED PORPHYRIN DIMER ESTER AND SINOPORPHYRIN SODIUM, PHARMACEUTICAL COMPOSITIONS CONTAINING THEM AND THEIR USES” (SHANGHAI GUANGSHENG BIOPHARMACEUTICAL CO., LTD, priority 2024, published 2026).

This data set in a line: storage stability / shelf life of sinoporphyrin sodium prepared by the method. Type of data set: physicochemical. Particulars: sinoporphyrin sodium prepared by the disclosed method; storage conditions not given.

As for `C=Cc1c(C)c2cc3nc(cc4nc(cc5[nH]c(cc1[nH]2)c(C)c5C(C)OC(C)c1c(C)c2cc5[nH]c(cc6nc(cc7nc(cc1[nH]2)C(C)=C7CCC(=O)[O-])C(CCC(=O)[O-])=C6C)c(C)c5C=C)C(C)=C4CCC(=O)[O-])C(CCC(=O)[O-])=C3C.[Na+].[Na+].[Na+].[Na+]` (centres unmarked) [sinoporphyrin sodium, bis[1-[6,7-dipropionatesodium salt-1,3,5,8-tetramethyl-2-vinyl-4-porphyrin]ethyl] ether], the “purity with the extension of storage time (storage stability)” value is given as “does not decrease significantly” and the shelf life entry is recorded as “more than 24 months”.
